Test results as given in patent US11771086B2, “Pest control composition including novel iminopyridine derivative” (priority 2012, dated 2023).
Like-named read-outs stand apart in the source and are kept apart here.

Key:
Plutella xylostella [1] = assay: whole plant or invertebrate; assay type: in vivo
Protocol: (§1) After an air drying process, second instar larvae were released thereto. […] The test was performed in duplicate.
(§2) Method for Judging Synergistic Effects

[2] = test system: Haemaphysalis longicornis; assay: whole plant or invertebrate; assay type: in vivo; details: for mortality at 0.00038 mg: read-out: Mortality of single agent against Haemaphysalis longicornis, single agent 0.38 μg
Protocol: A capsule with a diameter of 2 cm and a height of 2 cm was attached to the dorsal surface of a mouse. A compound of Formula (I), ivermectin, moxidectin, permethrin, amitraz, fipronil, spinetram and the mixture of the compound of Formula (I) and each insecticide were dissolved in ethanol at the concentrations given in […], and each of these was dripped onto the surface of a mouse body within a capsule. After thorough drying, eight Haemaphysalis longicornis nymphs were released and the top of the capsule was sealed with a lid. The mouse was kept in a cage at 25° C. using a 12-hour light period and a 12-hour dark period. Five days after the release, the capsule was removed and the number of surviving and dead nymphs and the number of engorged individuals were counted and the insect mortality and agonal rate was calculated by the following equation. Insect mortality and agonal rate (%)={number of dead and agonal insects/(number of survived insects+number of dead and agonal insects)}×100

Spodoptera litura = assay: whole plant or invertebrate; assay type: in vivo
Protocol: After an air drying process, third instar larvae were released thereto. […] The test was performed in duplicate.
as §2

Laodelphax striatella [3] = assay: whole plant or invertebrate; details: for mortality at 0.05 mg/seedling: read-out: Mortality of single agent against Laodelphax striatella, single agent 0.05 mg/Seedling; for mortality at 0.005 mg/seedling: read-out: Mortality of single agent against Laodelphax striatella, single agent 0.005 mg/Seedling; for Theoretical value by Colby's equation: Laodelphax striatella soil irrigation
Protocol: (§3) After the rice seedling was left to stand for 3 days, second instar larvae were released thereto. Thereafter, the larvae were left to stand in a thermostatic chamber (16 hours of light period-8 hours of dark period) at 25° C. […] The test was performed in duplicate. Mortality of larvae (%)={number of dead larvae/(number of survived larvae+number of dead larvae)}×100
B: 100−(mortality of larvae or adults when treated only with each of imidacloprid, fipronil, chlorantraniliprole, spinosad, clothianidin, dinotefuran, sulfoxaflor, pymetrozine, thiamethoxam, flupyradifurone and cycloxaprid))
as §2
When the mortality against Laodelphax striatella in the case of a mixture with another agent exceeded the theoretical value by the Colby's equation, a synergistic effect was judged to be present.

Chilo suppressalis = assay type: in vivo; details: soil irrigation, six days after release
Protocol: After standing for 3 days, second instar larvae were released thereto. […] The test was performed in duplicate.
as §2

Aphis gossypii = assay: Reference Test Example 3 Pest control test of Aphis gossypii (foliar treatment, single agent); assay type: in vivo; set-up: Aphis gossypii (Reference Test Example 3), mortality of larvae: concentration or dose not given beside the values; details: foliar treatment, single agent
Laodelphax striatella [4] = assay: Reference Test Example 18 Pest control test of Laodelphax striatella (wheat seedling root treatment); assay type: in vivo; details: wheat seedling roots treated; four days after release; 20 μg/seedling
Protocol: The drug was absorbed from the roots for 72 hours, and then ten second instar larvae of Laodelphax striatella were each released thereto. […] The test was performed in duplicate.

Plutella xylostella [5] = assay: Reference Test Example 1 Pest control test of Plutella xylostella (foliar treatment, single agent); assay type: in vivo; set-up: Plutella xylostella (Reference Test Example 1), mortality of larvae: concentration or dose not given beside the values; details: foliar treatment, single agent
From the text: After an air drying process, second instar larvae were released thereto. […] Test in duplicate.

rice blast = assay type: in vivo; details: single agent 0.5 ppm; foliar application; fourteen days after inoculation
[6] = test system: Frankliniella occidentalis; assay: whole plant or invertebrate
Protocol: as §3, with “an air drying process, first” for “the rice seedling was left to stand for 3 days, second”
(A: 100−(mortality of larvae or adults when treated only with Compound P212)
B: 100−(mortality of larvae or adults when treated with only the insecticide imidacloprid, dinotefuran, or acetamiprid))
as §2
When the mortality against Frankliniella occidentalis in the case of a mixture with another agent exceeded the theoretical value given by Colby's equation, a synergistic effect was judged to be present.

Laodelphax striatella [7] = assay: whole plant or invertebrate; assay type: in vivo
Protocol: as §1, §2

Rhizoctonia solani = assay: Test Example 12 Test of control of rice sheath blight (Rhizoctonia solani); assay type: in vivo; details: single agent 5 ppm; foliar spray; six days after inoculation
[8] = Haemaphysalis longicornis, topical, 120 h, capsule on mouse, five days, mortality and agonal rate
[9] = Laodelphax striatellus, soil, 72 h, soil irrigation
[10] = Laodelphax striatellus, foliar, 72 h, read-out: Mortality of single agent against Laodelphax striatella

O=c1c(-c2ccccc2)c([O-])[n+](Cc2ccc(Cl)nc2)c2ccccn12 [1-((6-chloropyridin-3-yl)methyl)-4-oxo-3-phenyl-4H-pyrido[1,2-a]pyrimidin-1-ium-2-olate]
mortality at 1 ppm (Plutella xylostella [1]; Plutella xylostella, foliar, 72 h, read-out: Mortality of single agent against Plutella xylostella, single agent 1 ppm, cabbage leaf disk spray, three days): 30% | Theoretical value by Colby's equation (Plutella xylostella [1]; Plutella xylostella, single agent 1 ppm (other component 0)): 30%

Cc1ccc(/N=C/N(C)/C=N/c2ccc(C)cc2C)c(C)c1 [Amitraz]
mortality at 0.00038 mg [2, 8]: 41%

CNC(=O)c1cc(Cl)cc(C)c1NC(=O)c1cc(Br)nn1-c1ncccc1Cl [Chlorantraniliprole]
Theoretical value by Colby's equation (Spodoptera litura; 0.02 ppm): 20% | mortality at 0.02 ppm (Spodoptera litura; Spodoptera litura, foliar, 72 h, read-out: Mortality of single agent against Spodoptera litura, single agent 0.02 ppm, cabbage leaf disk spray, three days): 20% | mortality at 0.05 mg/seedling (Laodelphax striatella [3]; [9]): 9% | Mortality of single agent against Chilo suppressalis (Chilo suppressalis; single agent 0.0005 mg/seedling): 60% | Theoretical value by Colby's equation (Plutella xylostella [1]; 0.002 ppm): 60% | mortality at 0.002 ppm (Plutella xylostella [1]; Plutella xylostella, foliar, 72 h, read-out: Mortality of single agent against Plutella xylostella, single agent 0.002 ppm, cabbage leaf disk spray, three days): 60%

CN/C(=N\[N+](=O)[O-])NCc1cnc(Cl)s1 [Clothianidin]
mortality at 0.005 mg/seedling (Laodelphax striatella [3]; [9]): 23%

O=C(N=c1ccccn1Cc1cnc(Cl)nc1)C(F)(F)F [Compound P-243]
Aphis gossypii (Reference Test Example 3), mortality of larvae (Aphis gossypii): 100% | Laodelphax striatella (Reference Test Example 18), mortality of larvae (Laodelphax striatella [4]): 100% | Plutella xylostella (Reference Test Example 1), mortality of larvae (Plutella xylostella [5]): 100%

CNC(=O)c1cc(C#N)cc(C)c1NC(=O)c1cc(Br)nn1-c1ncccc1Cl [Cyantraniliprole]
Mortality of single agent against Chilo suppressalis (Chilo suppressalis; single agent 0.005 mg/seedling): 83%

O=[N+]([O-])C1=C2N(Cc3ccc(Cl)nc3)CCN2[C@H]2CC[C@@H]1O2 [Cycloxaprid]
Theoretical value by Colby's equation (Laodelphax striatella [3]; single agent 0.005 mg/Seedling (other component 0)): 0% | Mortality of single agent against Laodelphax striatella (Laodelphax striatella [3]; single agent 0.005 mg/Seedling, soil irrigation): 0%

C[C@@H](NC(=O)C(C#N)C(C)(C)C)c1ccc(Cl)cc1Cl (stereo partly drawn) [Diclocymet]
Preventive value (Rice blast test, number of lesions) (rice blast): 8

CN/C(=N/CC1CCOC1)N[N+](=O)[O-] (stereo not drawn) [Dinotefuran]
mortality at 0.005 mg/seedling (Laodelphax striatella [3]; [9]): 0% | Theoretical value by Colby's equation ([6]; 5 ppm): 35% | mortality at 5 ppm ([6]; Frankliniella occidentalis, foliar, 72 h, read-out: Mortality of single agent against Frankliniella occidentalis): 35%

CCOc1ccc(C(C)(C)COCc2cccc(Oc3ccccc3)c2)cc1 [Etofenprox]
mortality at 10 ppm (Laodelphax striatella [7]; [10]): 30% | Theoretical value by Colby's equation (Laodelphax striatella [7]; foliar, 10 ppm): 30%

CCc1nc2cc(C)c(Oc3ccc(OC(F)(F)F)cc3)cc2c(OC(=O)OC)c1C [Flometoquin]
Theoretical value by Colby's equation (Spodoptera litura; Spodoptera litura, single agent 5 ppm (other component 0)): 10% | Mortality of single agent against Spodoptera litura (Spodoptera litura; single agent 5 ppm, cabbage leaf disk spray, three days): 10% | Theoretical value by Colby's equation (Plutella xylostella [1]; Plutella xylostella, single agent 0.313 ppm (other component 0)): 0% | Mortality of single agent against Plutella xylostella (Plutella xylostella [1]; single agent 0.313 ppm, cabbage leaf disk spray, three days): 0%

O=C1C=C(N(Cc2ccc(Cl)nc2)CC(F)F)CO1 [Flupyradifurone]
Theoretical value by Colby's equation (Laodelphax striatella [3]; single agent 0.01 mg/Seedling (other component 0)): 5% | Mortality of single agent against Laodelphax striatella (Laodelphax striatella [3]; single agent 0.01 mg/Seedling, soil irrigation): 5%

Cc1nn(C)c(Cl)c1C(=O)Nc1cccc2c1C(C)OC2(C)C (stereo not drawn) [Furametpyr]
Preventive value (Sheath blight test, lesion height) (Rhizoctonia solani): 77

N#Cc1ccccc1NC(=O)c1snc(Cl)c1Cl [Isotianil]
Theoretical value by Colby's equation (Laodelphax striatella [3]; single agent 0.5 mg/Seedling (other component 0)): 5% | Mortality of single agent against Laodelphax striatella (Laodelphax striatella [3]; single agent 0.5 mg/Seedling, soil irrigation): 5% | Preventive value (Rice blast test, number of lesions) (rice blast): 66

CC[C@H](C)[C@H]1O[C@]2(CC[C@@H]1C)C[C@@H]1C[C@@H](C/C=C(\C)[C@@H](O[C@H]3C[C@H](OC)[C@@H](O[C@H]4C[C@H](OC)[C@@H](O)[C@H](C)O4)[C@H](C)O3)[C@@H](C)/C=C/C=C3\CO[C@@H]4[C@H](O)C(C)=C[C@@H](C(=O)O1)[C@]34O)O2 [Ivermectin]
Mortality of single agent against Haemaphysalis longicornis ([2]; single agent 0.009 μg, capsule on mouse, five days, mortality and agonal rate): 3%

C[C@H]1O[C@H](O[C@H]2[C@H](O)[C@@H](O)[C@@H](O)[C@H](O)[C@@H]2O)[C@@H](N)C[C@@H]1NC(=N)C(=O)O [Kasugamycin]
Preventive value (Rice blast test, number of lesions) (rice blast): 0

CO/N=C1\C[C@]2(C[C@@H]3C[C@@H](C/C=C(\C)C[C@@H](C)/C=C/C=C4\CO[C@@H]5[C@H](O)C(C)=C[C@@H](C(=O)O3)[C@]45O)O2)O[C@H](/C(C)=C/C(C)C)[C@H]1C [Moxidectin]
mortality at 9 ng ([2]; Haemaphysalis longicornis, topical, 120 h, read-out: Mortality of single agent against Haemaphysalis longicornis, single agent 0.009 μg, capsule on mouse, five days, mortality and agonal rate): 6%

O=C(Nc1ccccc1)N(Cc1ccc(Cl)cc1)C1CCCC1 [Pencycuron]
Preventive value (Sheath blight test, lesion height) (Rhizoctonia solani): 69

CC1(C)C(C=C(Cl)Cl)C1C(=O)OCc1cccc(Oc2ccccc2)c1 (stereo not drawn) [Permethrin]
mortality at 0.0095 mg ([2]; Haemaphysalis longicornis, topical, 120 h, read-out: Mortality of single agent against Haemaphysalis longicornis, single agent 9.5 μg, capsule on mouse, five days, mortality and agonal rate): 71%

CC1=NNC(=O)N(/N=C/c2cccnc2)C1 [Pymetrozine]
mortality at 0.05 mg/seedling (Laodelphax striatella [3]; [9]): 15%

CCOc1ccc([Si](C)(C)CCCc2ccc(F)c(Oc3ccccc3)c2)cc1 [Silafluofen]
Mortality of single agent (Laodelphax striatella [7]; Laodelphax striatella foliar, single agent 5 ppm (other component 0)): 55% | mortality at 5 ppm (Laodelphax striatella [7]; [10]): 55%

C[Si](C)(C)CC(O)(Cn1cncn1)c1ccc(F)cc1 (stereo not drawn) [Simeconazole]
Preventive value (Sheath blight test, lesion height) (Rhizoctonia solani): 5

CC(c1ccc(C(F)(F)F)nc1)S(C)(=O)=NC#N (stereo not drawn) [Sulfoxaflor]
mortality at 0.005 mg/seedling (Laodelphax striatella [3]; [9]): 1%

CC(=O)Oc1c(C)c(C)nc2c(F)cc(C(C)(C)C)cc12 [Tebufloquin]
Preventive value (Rice blast test, number of lesions) (rice blast): 48

CN1COCN(Cc2cnc(Cl)s2)/C1=N\[N+](=O)[O-] [Thiamethoxam]
mortality at 0.01 mg/seedling (Laodelphax striatella [3]; Laodelphax striatellus, soil, 72 h, read-out: Mortality of single agent against Laodelphax striatella, single agent 0.01 mg/Seedling, soil irrigation): 23%

Cc1nc(C(F)(F)F)c(C(=O)Nc2c(Br)cc(OC(F)(F)F)cc2Br)s1 [Thifluzamide]
Preventive value (Sheath blight test, lesion height) (Rhizoctonia solani): 92

Cc1ccc(NC(=O)c2snnc2C)cc1Cl [Tiadinil]
mortality at 0.5 mg/seedling (Laodelphax striatella [3]; Laodelphax striatellus, soil, 72 h, read-out: Mortality of single agent against Laodelphax striatella, single agent 0.5 mg/Seedling, soil irrigation): 8% | Preventive value (Rice blast test, number of lesions) (rice blast): 0

Cc1cccc2sc3nncn3c12 [Tricyclazole]
Preventive value (Rice blast test, number of lesions) (rice blast): 72

CN/C(=N/CC1CCOC1)N[N+](=O)[O-] (stereo not drawn) [dinotefuran]
mortality at 0.0019 mg ([2]; Haemaphysalis longicornis, topical, 120 h, read-out: Mortality of single agent against Haemaphysalis longicornis, single agent 1.9 μg, capsule on mouse, five days, mortality and agonal rate): 0%

N#Cc1nn(-c2c(Cl)cc(C(F)(F)F)cc2Cl)c(N)c1[S+]([O-])C(F)(F)F (stereo not drawn) [fipronil]
mortality at 0.00038 mg [2, 8]: 78%

CC(COc1ccc(Oc2ccccc2)cc1)Oc1ccccn1 (stereo not drawn) [pyriproxyfen]
mortality at 47.5 ng ([2]; Haemaphysalis longicornis, topical, 120 h, read-out: Mortality of single agent against Haemaphysalis longicornis, single agent 0.0475 μg, capsule on mouse, five days, mortality and agonal rate): 2%

Emamectin benzoate
Theoretical value by Colby's equation (Spodoptera litura; Spodoptera litura, single agent 0.02 ppm (other component 0)): 0% | Mortality of single agent against Spodoptera litura (Spodoptera litura; single agent 0.02 ppm, cabbage leaf disk spray, three days): 0%

spinetoram
Theoretical value by Colby's equation ([2]; Haemaphysalis longicornis, single agent 0.38 μg (other component 0)): 6% | Mortality of single agent against Haemaphysalis longicornis ([2]; single agent 0.38 μg, capsule on mouse, five days, mortality and agonal rate): 6%

spinosad
Theoretical value by Colby's equation ([2]; Haemaphysalis longicornis, single agent 1.9 μg (other component 0)): 2.5% | Mortality of single agent against Haemaphysalis longicornis ([2]; single agent 1.9 μg, capsule on mouse, five days, mortality and agonal rate): 2.5%
